Measured values as given in a melting point compilation (Tetko et al.; mined from patent text by program, amines drawn as free bases though some values may be those of a salt).

melting point [°C]	Compound
171 to 172	CCCCC[C@H]1CC[C@H](CCC2CCC(c3ccc(Oc4ccc(N)cc4)cc3)(c3ccc(Oc4ccc(N)cc4)cc3)CC2)CC1
> 270	O=c1[nH]c2cc(-c3cn4ccccc4n3)ccc2s1
98 to 100	CCCCCCC(=O)NCC(=O)O
64	C=CCOc1cc([N+](=O)[O-])ccc1OCC1CO1 (centres undefined)
336 to 338	CCCc1c2nc(C(=O)O)cc(Cl)c2cc2c(=O)cc(C(=O)O)oc12
58	COc1ccccc1-c1cccc(C#N)c1
> 250	C1=C(c2ccccc2)c2ccccc2C1(Cc1ccncc1)Cc1ccncc1
121 to 123	COc1ccc(OC)c(NC(=O)c2cc(OC)ccc2OC)c1
278 to 280	Cc1sc2nc3cccc(C)c3c(=O)n2c1C
80 to 82	O=C1C(=O)c2ccccc2C2=C1SCC(CNCCc1ccccc1)O2 (centres undefined)
137 to 139	COc1ccc(CNc2ccc(C(=O)Nc3cccc4cc(C(=O)Nc5cc(C(C)(C)C)cc(NS(C)(=O)=O)c5OC)sc34)cn2)cc1
204 to 206	O=C1CCC(N2C(=O)c3cccc(NC(=O)COCc4ccccc4)c3C2=O)C(=O)N1 (centres undefined)
148 to 150	CCOC(Cc1ccc(OCCOC2c3ccccc3CCc3ccccc32)cc1)C(=O)O (centres undefined)
138 to 140	Cc1ccccc1Nc1c(C(=O)C(C)C)cnc2c(OCCO)cccc12
225 to 230	O=C(O)c1cccnc1Oc1ccc(-c2nnn[nH]2)cc1
137 to 139	CS(=O)(=O)c1ccc(-c2cccn2-c2ccc(F)c(F)c2)cc1
95 to 98	Cc1oc(-c2ccccc2)nc1CN(C)C(=O)c1ccc(C=C2SC(=O)NC2=O)cc1
147 to 148	O=C(c1ccc(F)c(Br)c1)N1CCC(Br)C(c2ccccc2)=N1 (centres undefined)
124 to 128	CCCCC12CCC3C4=C(CCC3C1CCC2=O)CC(OC)=CC4 (centres undefined)
156 to 158	CC(c1ccc(OCC(=O)Nc2ccc(-c3ccc(Cl)cc3)cc2)cc1)N1CCCC1 (centres undefined)
61 to 63	CCOC(=O)C(C)Oc1ccc(Nc2ccc(C(F)(F)F)cc2[N+](=O)[O-])cc1 (centres undefined)
98 to 99	N#CCC(=O)c1cc(F)c(Cl)cc1Cl
147 to 148	COc1cc(C(O)CS(C)(=O)=O)cc(OC)c1N(C)C (centres undefined)

The remaining lines, values behind:

Compound	melting point [°C]
O=CNNc1ccc(NC(=O)c2cccc(N=C=S)c2)cc1	> 290
Cc1cc(C)c(CC(=O)N(C)CC(=O)O)c(C)c1	140
O=C1c2ccccc2C(=O)N1c1nc(Cl)nc(Cl)n1	175 to 179
CC1(C)Oc2cc3nonc3cc2C(N2CCC(O[N+](=O)[O-])CC2=O)C1O (centres undefined)	186 to 189
C[C@@H](O)c1nccc(N2CCN(Cc3ccccn3)CC2)n1	68 to 70
Cc1nnc(SCC(=O)C23CC4CC(CC(C4)C2)C3)s1	102 to 105
CCN(c1ccc(Br)cc1)S(=O)(=O)C(F)(F)F	59 to 60
OCC(=C(c1ccc(F)cc1)c1ccc(F)cc1)n1cnnn1	152 to 154
O=C(NC(=O)c1c(F)cccc1F)Nc1cc(C(F)(F)F)c(Cl)cc1Br	196
CCOC(=O)CCc1cnc(-c2cc3cccc(N(C)S(=O)(=O)c4cccs4)c3[nH]2)s1	126 to 127
COC(=O)c1c(OC)ccc(OC)c1N=CN(C)C	81 to 83
CCc1nc2c(cnn2CC)c(NC2CCOCC2)c1CNC(=O)c1cccc(C(=O)NCc2ccc(Cl)c(-c3cccc(CN4CC(C)NC(C)C4)c3)c2)c1 (centres undefined)	121 to 124
CCOC(=O)/C(=N\OCC(=O)N(CC)CC)c1csc(N)n1	161
CCCc1nc(C(=O)OCC)c(C(=O)OCC)[nH]1	81 to 83
O=c1nc(-c2ccccc2)c2ccccc2n1CC(F)(F)F	182
COc1cc(COc2cc(NC(C)=O)c(Cl)cc2C(=O)CCCCCl)cc(OC)c1	135 to 137
